Results taken from ChEMBL document CHEMBL1255360, “Daptomycin exerts bactericidal activity without lysis of Staphylococcus aureus” (2008).
Converted amounts (≈) assume the structure as drawn. The source made the active and inactive calls. No cut-off for these calls is given here.

Columns and labels:
Staphylococcus aureus [1] = assay: Bactericidal activity against Staphylococcus aureus ATCC 29213 assessed as cell lysis at MIC after 120 mins; format: functional
Staphylococcus aureus [2] = assay: Bactericidal activity against Staphylococcus aureus ATCC 29213 assessed as cell lysis at 4 ug/ml after 120 mins; format: functional, organism-based
Staphylococcus aureus [3] = assay: Bactericidal activity against Staphylococcus aureus ATCC 29213 assessed as decrease in cell viability at 4 ug/ml within 120 mins; format: functional
Staphylococcus aureus [4] = assay: microbe, parasite or virus in culture; settings: ATCC 29213
Description: Antimicrobial activity against Staphylococcus aureus ATCC 29213

Staphylococcus aureus [5] = assay: Bactericidal activity against Staphylococcus aureus ATCC 29213 assessed as cell lysis at 4 ug/ml after 60 mins by transmission electron microscopy; format: functional, organism-based
Staphylococcus aureus [6] = assay: Bactericidal activity against Staphylococcus aureus ATCC 29213 assessed as membrane permeability at 4 ug/ml by ToPro3 dye based assay; format: functional, organism-based
Staphylococcus aureus [7] = assay: Bactericidal activity against Staphylococcus aureus ATCC 29213 assessed as altered cell morphology at 4 ug/ml after 60 mins by transmission electron microscopy; format: functional
Staphylococcus aureus [8] = assay: Bactericidal activity against Staphylococcus aureus ATCC 29213 assessed as decrease in cell viability at MIC after 120 mins; format: functional
Staphylococcus aureus [9] = assay: Bactericidal activity against Staphylococcus aureus ATCC 29213 assessed as calcein release at 4 ug/ml; format: functional, organism-based

SMILES | Activity (Staphylococcus aureus [1]) [%] | Activity (Staphylococcus aureus [2]) | fold change (FC) (Staphylococcus aureus [3]) | MIC (Staphylococcus aureus [4]) [µg/mL] | Activity (Staphylococcus aureus [5]) | Activity (Staphylococcus aureus [6]) | Activity (Staphylococcus aureus [7]) [%] | fold change (FC) (Staphylococcus aureus [8]) | Activity (Staphylococcus aureus [9])
CCCCCCCCCC(=O)N[C@@H](Cc1c[nH]c2ccccc12)C(=O)N[C@H](CC(N)=O)C(=O)N[C@@H](CC(=O)O)C(=O)N[C@@H]1C(=O)NCC(=O)N[C@@H](CCCN)C(=O)N[C@@H](CC(=O)O)C(=O)N[C@H](C)C(=O)N[C@@H](CC(=O)O)C(=O)NCC(=O)N[C@H](CO)C(=O)N[C@@H]([C@H](C)CC(=O)O)C(=O)N[C@@H](CC(=O)c2ccccc2N)C(=O)O[C@@H]1C | 50 | inactive | >1000 | 0.5 (≈ 0.309 µM) | inactive | inactive | >90 | 200 | inactive
O=C(O)c1cn(C2CC2)c2cc(N3CCNCC3)c(F)cc2c1=O | – | – | – | – | – | inactive | – | – | –
